Measurements as given in patent US5910435A, “Method of folding proteins with synthetic dithiol catalysts” (Wisconsin Alumni Research Foundation, priority 1996, dated 1999).

Assays:
[1] = cited from earlier work
[2] = tested on: pdilΔ Saccharomyces cerevisiae; experiment: Rescue of PDI-deficient yeast on 5-FOA plates; assay type: cell-based; details: for survival of colonies of PDI-deficient yeast after selection against the PDI plasmid: minimal medium plates containing 5-FOA, BMC at 10 mM, DTT by the same procedure
Method: The ability of a synthetic diol protein catalyst to catalyze protein folding in vivo was tested by its ability to replace the function of PDI in a eukaryotic cell. The cells used for this procedure were pdilΔ Saccharomyces cerevisiae, which have a deletion in their PDI1 gene rendering the expressed enzyme dysfunctional. The PDI1 gene is an essential gene for survival of S. cerevisiae. To enable these cells to live, the cells contain a plasmid that directs expression of S. cerevisiae PDI. This plasmid also directs the expression of the […] gene product. These cells were streaked onto plates of minimal medium containing 5-fluoroorotic acid (5-FOA) which makes the URA3 gene product toxic to S. cerevisiae. Accordingly, this selects against presence of the plasmid and surviving cells will have neither the plasmid nor PDI.
This test was run with plates containing 5-FOA which also contained 0 or 10 mM BMC. […] No colonies survived on the plate without BMC.
Cells from the colonies rescued with BMC were then plated onto rich medium without BMC.
This same procedure was repeated with the disulfide bond reducing agent dithiothrietol (DTT). DTT is a low molecular weight dithiol with a higher pKa and a lower E°' than BMC.

scrambled ribonuclease A = experiment: In vitro unscrambling of non-native disulfide bonds (regain of ribonucleolytic activity); assay type: biochemical; details: 0, 20 or 200 μM; 1 mM reduced and 0.2 mM oxidized glutathione, pH 7.6, 30° C.; FIG. 5
Method: Disulfide bonds form readily in an oxidizing environment. These disulfide bonds may not, however, be the ones that exist in the native, active conformation of a protein. The desirable property in a synthetic protein foldase is the ability to catalyze the unscrambling of non-native disulfide bonds. The ability of BMC to catalyze the unscrambling of non-native disulfide bonds in vitro was assayed by a method similar to that reported previously by our group and others. Laboissiere et al, Protein Express. Purif. 6:700-706 (1995).
This assay is based on the disulfide bonds in ribonuclease A, a well-characterized enzyme. In its native, enzymatically active conformation, ribonuclease A has eight cysteine residues which participate in four specific disulfide bonds. […]
In the assay, BMC was tested for its ability to catalyze the regain of enzymatic activity in scrambled ribonuclease A. This regain in activity can only occur by the isomerization (or unscrambling) of the non-native disulfide bonds. […] In this test, the aliquot was added to 500 μL of 100 mM MES-HCl buffer, pH 6.0, containing 100 mM NaCl and 10 mM poly(C) RNA, which is a substrate for ribonuclease A. Ribonucleolytic activity was monitored by following the change in absorbance at 238 nm which accompanies the cleavage of poly(C) by enzymatically active ribonuclease A.

PDI deficient yeast = experiment: Complementation of PDI-deficient yeast with thioredoxin and its active-site mutants; assay type: cell-based
Excerpt: Because the proper folding of proteins is of significant scientific and commercial interest, systems have been designed to help to study protein folding. One such system is based on a yeast cells which lack a nuclear gene for the PDI enzyme, and are therefore incapable of catalyzing the formation of the proper disulfide bonds required for biological activity of proteins. Such yeast cells can be grown so long as they harbor a plasmid that produces PDI, but the cells promptly expire when the plasmid PDI is removed. The ability of mutant, altered, or engineered forms of PDI to rescue the PDI-deficient yeast cultures from death is a test of the suitability of such altered isoforms to properly fold proteins. Investigation into the function of PDI, and its use in the unscrambling of non-native disulfide bonds, is described by Laboissiere et al., J. Biol. Chem. 270:47:28006-28009 (1995). Based on this test system, it has been possible to determine that the motif for PDI activity consists of a particular amino acid domain. This domain is shared in common with the reducing bacterial enzyme thioredoxin. The domain has the consensus sequence Cys-X-X-Cys (SEQ ID NO: 1 or C-X-X-C, where X is an amino acid, Edman, Nature 317:267-270 (1985).
That study was conducted using mutant PDI deficient yeast. […]

Compound	pKa relative to BMC [1]	survival of colonies of PDI-deficient yeast after selection against the PDI plasmid [2]	catalysis of the regain of biological activity of a protein with scrambled disulfide bonds (scrambled ribonuclease A)	total yield of active protein, in the presence versus in the absence of the catalyst (scrambled ribonuclease A)	time until surviving colonies appeared ([2]; 5-FOA plate with 10 mM BMC) [days]	complementation (rescue) of PDI deficient yeast (PDI deficient yeast)
O[C@@H](CS)[C@@H](O)CS (relative stereo) [DTT, dithiothrietol, reference compound]	higher	no yeast colonies could be rescued	–	–	–	–
O=C(CS)NC1CCCCC1NC(=O)CS (stereo not shown) [BMC, N,N'-bis(2-mercaptoacetyl)-1,2-diaminocyclohexane]	–	Surviving colonies appeared	significant catalysis	significantly greater	5	–
thioredoxin: 12 kilodalton protein from E. coli, prokaryotic functional homolog of PDI, active site Cys-Gly-Pro-Cys	–	–	–	–	–	failed
